According to patent US11066414B2, “Cot modulators and methods of use thereof” (Gilead Sciences, Inc., priority 2015, dated 2021):
Read-outs that look alike come from different tables or passages of the source.

Columns and labels:
TNFα = assay: Cot Monocyte TNFα Cell Based Assay
Human Cot = Human Cot (Homo sapiens (Human), UniProt P41279); assay: High Throughput Cot Biochemical Assay; conditions: Cot HTRF (TR-FRET KinEASE) biochemical assay, 400 μM ATP
[1] = Homo sapiens, Monocyte, read-out: EC50 TNF, LPS-stimulated human monocytes, TNFα TR-FRET
[2] = read-out: EC50 TNF, LPS-stimulated human monocytes, TNFα TR-FRET

Human Cot, sequence (P41279 30-397): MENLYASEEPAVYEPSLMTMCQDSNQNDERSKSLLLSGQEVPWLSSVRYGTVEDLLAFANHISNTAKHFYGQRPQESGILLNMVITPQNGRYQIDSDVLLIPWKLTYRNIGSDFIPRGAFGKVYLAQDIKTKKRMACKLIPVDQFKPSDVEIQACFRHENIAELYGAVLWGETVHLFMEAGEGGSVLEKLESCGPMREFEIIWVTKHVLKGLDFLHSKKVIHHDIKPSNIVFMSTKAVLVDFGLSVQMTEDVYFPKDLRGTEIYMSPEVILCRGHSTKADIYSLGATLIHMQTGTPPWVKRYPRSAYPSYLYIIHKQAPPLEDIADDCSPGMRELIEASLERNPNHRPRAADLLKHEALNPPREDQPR

SMILES | EC50 (TNFα; [1]) | IC50 (Human Cot; IC50 HTRF) | EC50 (TNFα; [2]) | IC50 (Human Cot; read-out: IC50 HTRF)
Cc1ccc([C@H](Nc2cc(C#N)c3ncc(C#N)c(NCC(C)(C)C)c3c2)c2cn(C3(C(F)(F)F)CC3)nn2)cn1 [Example 828, (S)-6-(((6-methylpyridin-3-yl)(1-(1-(trifluoromethyl)cyclopropyl)-1H-1,2,3-triazol-4-yl)methyl)amino)-4-(neopentylamino)quinoline-3,8-dicarbonitrile] | 253 nM | 22 nM |  | 
Cc1ccc([C@H](Nc2cc(C#N)c3ncc(C#N)c(NCC(C)(C)C)c3c2)c2cn(C3(C(F)F)CC3)nn2)c(C)n1 [Example 829, (S)-6-(((1-(1-(difluoromethyl)-cyclopropyl)-1H-1,2,3-triazol-4-yl)(2,6-dimethylpyridin-3-yl)methyl)amino)-4-(neopentylamino)quinoline-3,8-dicarbonitrile] | 66 nM | 4 nM |  | 
Cc1nc(C#N)ccc1[C@H](Nc1cc(C#N)c2ncc(C#N)c(NCC(C)(C)C)c2c1)c1cn(C2(C(F)(F)F)CC2)nn1 [Example 830, (S)-6-(((6-cyano-2-methylpyridin-3-yl)(1-(1-(trifluoromethyl)cyclopropyl)-1H-1,2,3-triazol-4-yl)methyl)amino)-4-(neopentylamino)quinoline-3,8-dicarbonitrile] | 384 nM | 16 nM |  | 
Cc1nc(F)ccc1[C@H](Nc1cc(C#N)c2ncc(C#N)c(NCC3(C(F)(F)F)CCC3)c2c1)c1cn(C2(C(F)F)CC2)nn1 [Example 831, (S)-6-(((1-(1-(difluoromethyl)-cyclopropyl)-1H-1,2,3-triazol-4-yl)(6-fluoro-2-methylpyridin-3-yl)methyl)amino)-4-(((1-(trifluoromethyl)cyclobutyl)methyl)-amino)quinoline-3,8-dicarbonitrile] | 202 nM | 8 nM |  | 
Cc1nc(F)ccc1[C@H](Nc1cc(C#N)c2ncc(C#N)c(NCC(C)(C)C(F)(F)F)c2c1)c1cn(C2(C(F)F)CC2)nn1 [Example 832, (S)-6-(((1-(l-(difluoromethyl)-cyclopropyl)-1H-1,2,3-triazol-4-yl)(6-fluoro-2-methylpyridin-3-yl)methyl)amino)-4-((3,3,3-trifluoro-2,2-dimethylpropyl)amino)quinoline-3,8-dicarbonitrile] |  |  | 44 nM | 2 nM
Cc1nc(F)ccc1[C@H](Nc1cc(C#N)c2ncc(C#N)c(NCC(C)(C)C(F)(F)F)c2c1)c1cn(C23CC(C2)C3)nn1 [Example 833, (S)-6-(((1-(bicyclo[1.1.1]pentan-1-yl)-1H-1,2,3-triazol-4-yl)(6-fluoro-2-methylpyridin-3-yl)methyl)amino)-4-((3,3,3-trifluoro-2,2-dimethylpropyl)amino)quinoline-3,8-dicarbonitrile] | 22 nM | 2 nM |  | 
Cc1nc(F)ccc1[C@H](Nc1cc(C#N)c2ncc(C#N)c(NCC(C)(C)C)c2c1)c1cn(CC(C)(F)F)nn1 [Example 836, (S)-6-(((1-(2,2-difluoropropyl)-1H-1,2,3-triazol-4-yl)(6-fluoro-2-methylpyridin-3-yl)methyl)amino)-4-(neopentylamino)quinoline-3,8-dicarbonitrile] | 52 nM | 4 nM |  | 
CCC(F)(F)Cn1cc([C@@H](Nc2cc(C#N)c3ncc(C#N)c(NCC(C)(C)C)c3c2)c2ccc(F)nc2C)nn1 [Example 837, (S)-6-(((1-(2,2-difluorobutyl)-1H-1,2,3-triazol-4-yl)(6-fluoro-2-methylpyridin-3-yl)methyl)amino)-4-(neopentylamino)quinoline-3,8-dicarbonitrile] | 121 nM | 7 nM |  | 
Cn1ccc2c([C@H](Nc3cc(C#N)c4ncc(C#N)c(NCC(C)(C)C(F)(F)F)c4c3)c3cn(C4(C(F)F)CC4)nn3)cccc2c1=O [Example 838, (S)-6-(((1-(1-(difluoromethyl)-cyclopropyl)-1H-1,2,3-triazol-4-yl)(2-methyl-1-oxo-1,2-dihydroisoquinolin-5-yl)methyl)amino)-4-((3,3,3-trifluoro-2,2-dimethylpropyl)-amino)quinoline-3,8-dicarbonitrile] | 84 nM | 3 nM |  | 
Cc1nc(F)ccc1[C@H](Nc1cc(C#N)c2ncc(C#N)c(NCC(C)(C)C)c2c1)c1cn(CC2(C(F)(F)F)CC2)nn1 [Example 839, (S)-6-(((6-fluoro-2-methylpyridin-3-yl)(1-((1-(trifluoromethyl)cyclo-propyl)methyl)-1H-1,2,3-triazol-4-yl)methyl)amino)-4-(neopentylamino)quinoline-3,8-dicarbonitrile] | 94 nM | 6 nM |  | 

Next, values leading:

EC50 (TNFα; [1]) | IC50 (Human Cot; IC50 HTRF) | EC50 (TNFα; [2]) | IC50 (Human Cot; read-out: IC50 HTRF) | SMILES
 |  | 41 nM | 2 nM | Cc1nc(F)ccc1[C@H](Nc1cc(C#N)c2ncc(C#N)c(NCC(C)(C)C(F)(F)F)c2c1)c1cn(C2(C(F)F)CC2)nn1 [Example 841]
 |  | 563 nM | 3 nM | CC(C)(CNc1c(C#N)cnc2c(C#N)cc(N[C@H](c3cn(C4(C(F)F)CC4)nn3)c3cccc4c(=O)[nH]ccc34)cc12)C(F)(F)F [Example 842]
104 nM | 4 nM |  |  | Cc1nc(F)ccc1[C@H](Nc1cc(C#N)c2ncc(C#N)c(NCC(C)(C)C(F)(F)F)c2c1)c1cn(C2(C(F)(F)F)CC2)nn1 [Example 843, (S)-6-(((6-fluoro-2-methylpyridin-3-yl)(1-(1-(trifluoromethyl)cyclopropyl)-1H-1,2,3-triazol-4-yl)methyl)amino)-4-((3,3,3-trifluoro-2,2-dimethylpropyl)amino)-quinoline-3,8-dicarbonitrile]
1000 nM | 20 nM |  |  | Cc1nc(F)ccc1[C@H](Nc1cc(C#N)c2ncc(C#N)c(NCC3C(C)(C)C3(C)C)c2c1)c1cn(C2(C(F)F)CC2)nn1 [Example 845, (S)-6-(((1-(1-(difluoromethyl)-cyclopropyl)-1H-1,2,3-triazol-4-yl)(6-fluoro-2-methylpyridin-3-yl)methyl)amino)-4-(((2,2,3,3-tetramethylcyclopropyl)methyl)-amino)quinoline-3,8-dicarbonitrile]
17 nM | 2 nM |  |  | Cc1nc(F)ccc1[C@H](Nc1cc(C#N)c2ncc(C#N)c(NCC(C)(C)C(F)(F)F)c2c1)c1cn(C2(C)CC2)nn1 [Example 846, (S)-6-(((6-fluoro-2-methylpyridin-3-yl)(1-(1-methylcyclopropyl)-1H-1,2,3-triazol-4-yl)methyl)amino)-4-((3,3,3-trifluoro-2,2-dimethylpropyl)amino)quinoline-3,8-dicarbonitrile]
296 nM | 31 nM |  |  | Cn1ccc2c([C@H](Nc3cc(C#N)c4ncc(C#N)c(NCC(C)(C)C)c4c3)c3cn(C4(C(F)F)CC4)nn3)cccc21 [Example 847, (S)-6-(((1-(1-(difluoromethyl)-cyclopropyl)-1H-1,2,3-triazol-4-yl)(1-methyl-1H-indol-4-yl)methyl)amino)-4-(neopentylamino)quinoline-3,8-dicarbonitrile]
247 nM | 31 nM |  |  | Cc1nc(F)ccc1[C@H](Nc1cc(C#N)c2ncc(C#N)c(NCC34CC(C3)C4)c2c1)c1cn(C2(C(F)(F)F)CC2)nn1 [Example 848, (S)-4-((bicyclo[1.1.1]pentan-1-ylmethyl)amino)-6-(((6-fluoro-2-methylpyridin-3-yl)(1-(1-(trifluoromethyl)cyclopropyl)-1H-1,2,3-triazol-4-yl)methyl)amino)quinoline-3,8-dicarbonitrile]
261 nM | 16 nM |  |  | Cc1nc(F)ccc1[C@H](Nc1cc(C#N)c2ncc(C#N)c(NCC34CC(C3)C4)c2c1)c1cn(C2(C(F)F)CC2)nn1 [Example 849, (S)-4-((bicyclo[1.1.1]pentan-1-ylmethyl)amino)-6-(((1-(1-(difluoromethyl)-cyclopropyl)-1H-1,2,3-triazol-4-yl)(6-fluoro-2-methylpyridin-3-yl)methyl)amino)quinoline-3,8-dicarbonitrile]
65 nM | 6 nM |  |  | Cc1nc(F)ccc1[C@H](Nc1cc(C#N)c2ncc(C#N)c(NCC(C)(C)C)c2c1)c1cn(C(C)(C)C2CC2)nn1 [Example 850, (S)-6-(((1-{2-cyclopropylpropan-2-yl)-1H-1,2,3-triazol-4-yl)(6-fluoro-2-methylpyridin-3-yl)methyl)amino)-4-(neopentylamino)quinoline-3,8-dicarbonitrile]
21 nM | 3 nM |  |  | Cc1nc(F)ccc1[C@H](Nc1cc(C#N)c2ncc(C#N)c(NCC(C)(C)C)c2c1)c1cn(C2(C(C)C)CC2)nn1 [Example 851, (S)-6-(((6-fluoro-2-methylpyridin-3-yl)(1-(1-isopropylcyclopropyl)-1H-1,2,3-triazol-4-yl)methyl)amino)-4-(neopentylamino)quinoline-3,8-dicarbonitrile]
58 nM | 2 nM |  |  | Cc1nc(F)ccc1[C@H](Nc1cc(C#N)c2ncc(C#N)c(NCC(C)(C)C)c2c1)c1cn(C2(C)COC2)nn1 [Example 852, (S)-6-(((6-fluoro-2-methylpyridin-3-yl)(1-(3-methyloxetan-3-yl)-1H-1,2,3-triazol-4-yl)methyl)amino)-4-(neopentylamino)quinoline-3,8-dicarbonitrile]
98 nM | 1 nM |  |  | Cn1ccc2c([C@H](Nc3cc(C#N)c4ncc(C#N)c(NCC(C)(C)C)c4c3)c3cn(C4(C)COC4)nn3)cccc2c1=O [Example 853, (S)-6-(((2-methyl-1-oxo-1,2-dihydroisoquinolin-5-yl)(1-(3-methyloxetan-3-yl)-1H-1,2,3-triazol-4-yl)methyl)amino)-4-(neopentylamino)quinoline-3,8-dicarbonitrile]
17 nM | 4 nM |  |  | Cc1nc(F)ccc1[C@H](Nc1cc(C#N)c2ncc(C#N)c(NCC(C)(C)C)c2c1)c1nnn([C@@H](C)CF)c1F [Example 854, 6-(((S)-(5-fluoro-1-((S)-1-fluoropropan-2-yl)-1H-1,2,3-triazol-4-yl)(6-fluoro-2-methylpyridin-3-yl)methyl)amino)-4-(neopentylamino)quinoline-3,8-dicarbonitrile]
